Data: PMC5513037, “Examining the influence of specificity ligands and ATP-competitive ligands on the overall effectiveness of bivalent kinase inhibitors” (Proteome Science, 2017)

How the values were obtained:
Experiment in all cases: KAM-matrix competition in K562 lysate;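 on 0.001 uM KAM: median log10 fold change of treatment over DMSO control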;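 on 0.01 uM KAM: median log10 fold change of treatment over DMSO control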;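 on 0.1 uM KAM: median log10 fold change of treatment over DMSO control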;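 on 1 uM KAM: median log10 fold change of treatment over DMSO control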;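 on 10 uM KAM: median log10 fold change of treatment over DMSO control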
Type in all cases: binding
ULK2 = target: T1, ULK2 (Homo sapiens, UniProt Q8IYT8);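 on 0.001 uM KAM: median log10 fold change of treatment over DMSO control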;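 on 0.01 uM KAM: median log10 fold change of treatment over DMSO control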;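 on 0.1 uM KAM: median log10 fold change of treatment over DMSO control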;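 on 1 uM KAM: median log10 fold change of treatment over DMSO control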;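 on 10 uM KAM: median log10 fold change of treatment over DMSO control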
T1 construct: endogenous in cells; host or cells: K562
T1 sequence (Q8IYT8 1-1036): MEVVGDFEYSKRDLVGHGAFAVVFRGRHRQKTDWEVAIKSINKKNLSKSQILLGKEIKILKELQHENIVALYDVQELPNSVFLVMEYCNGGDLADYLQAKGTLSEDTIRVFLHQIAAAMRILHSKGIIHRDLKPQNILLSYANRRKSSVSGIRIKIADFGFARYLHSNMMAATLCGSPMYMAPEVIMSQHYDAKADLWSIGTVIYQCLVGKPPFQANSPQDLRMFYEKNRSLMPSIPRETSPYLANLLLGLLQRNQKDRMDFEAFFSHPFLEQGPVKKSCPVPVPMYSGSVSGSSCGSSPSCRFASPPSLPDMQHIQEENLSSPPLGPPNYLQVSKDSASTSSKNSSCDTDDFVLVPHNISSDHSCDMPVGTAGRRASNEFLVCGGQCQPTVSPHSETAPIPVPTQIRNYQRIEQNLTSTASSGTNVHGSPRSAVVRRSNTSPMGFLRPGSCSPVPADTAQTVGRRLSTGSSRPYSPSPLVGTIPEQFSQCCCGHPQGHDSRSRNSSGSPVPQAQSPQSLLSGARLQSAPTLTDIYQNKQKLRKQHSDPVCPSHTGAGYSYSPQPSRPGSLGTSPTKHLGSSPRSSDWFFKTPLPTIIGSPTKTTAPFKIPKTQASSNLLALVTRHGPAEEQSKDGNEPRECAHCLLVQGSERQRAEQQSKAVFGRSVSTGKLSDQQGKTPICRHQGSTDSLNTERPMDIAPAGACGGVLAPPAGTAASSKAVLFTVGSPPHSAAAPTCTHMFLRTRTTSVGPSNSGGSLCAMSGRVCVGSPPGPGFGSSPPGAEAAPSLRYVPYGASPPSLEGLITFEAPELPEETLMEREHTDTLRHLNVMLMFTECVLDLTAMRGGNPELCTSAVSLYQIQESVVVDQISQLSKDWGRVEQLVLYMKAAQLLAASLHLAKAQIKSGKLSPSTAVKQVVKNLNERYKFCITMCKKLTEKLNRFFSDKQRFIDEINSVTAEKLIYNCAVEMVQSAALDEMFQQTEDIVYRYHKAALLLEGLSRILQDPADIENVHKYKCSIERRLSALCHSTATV
Protocol: (§1) Supplement 12953_2017_125_MOESM1_ESM.zip/MS_Supp Info.xlsx, sheet "KAM" | column: 10 uM KAM; 1 uM KAM; 0.1 uM KAM; 0.01 uM KAM; 0.001 uM KAM; RB50

NPR2 = target: T2, NPR2 (Homo sapiens, UniProt P20594);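 on 0.001 uM KAM: median log10 fold change of treatment over DMSO control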;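 on 0.01 uM KAM: median log10 fold change of treatment over DMSO control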;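 on 0.1 uM KAM: median log10 fold change of treatment over DMSO control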;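 on 1 uM KAM: median log10 fold change of treatment over DMSO control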;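 on 10 uM KAM: median log10 fold change of treatment over DMSO control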
T2 construct: endogenous in cells; host or cells: K562
T2 sequence (P20594 23-1047): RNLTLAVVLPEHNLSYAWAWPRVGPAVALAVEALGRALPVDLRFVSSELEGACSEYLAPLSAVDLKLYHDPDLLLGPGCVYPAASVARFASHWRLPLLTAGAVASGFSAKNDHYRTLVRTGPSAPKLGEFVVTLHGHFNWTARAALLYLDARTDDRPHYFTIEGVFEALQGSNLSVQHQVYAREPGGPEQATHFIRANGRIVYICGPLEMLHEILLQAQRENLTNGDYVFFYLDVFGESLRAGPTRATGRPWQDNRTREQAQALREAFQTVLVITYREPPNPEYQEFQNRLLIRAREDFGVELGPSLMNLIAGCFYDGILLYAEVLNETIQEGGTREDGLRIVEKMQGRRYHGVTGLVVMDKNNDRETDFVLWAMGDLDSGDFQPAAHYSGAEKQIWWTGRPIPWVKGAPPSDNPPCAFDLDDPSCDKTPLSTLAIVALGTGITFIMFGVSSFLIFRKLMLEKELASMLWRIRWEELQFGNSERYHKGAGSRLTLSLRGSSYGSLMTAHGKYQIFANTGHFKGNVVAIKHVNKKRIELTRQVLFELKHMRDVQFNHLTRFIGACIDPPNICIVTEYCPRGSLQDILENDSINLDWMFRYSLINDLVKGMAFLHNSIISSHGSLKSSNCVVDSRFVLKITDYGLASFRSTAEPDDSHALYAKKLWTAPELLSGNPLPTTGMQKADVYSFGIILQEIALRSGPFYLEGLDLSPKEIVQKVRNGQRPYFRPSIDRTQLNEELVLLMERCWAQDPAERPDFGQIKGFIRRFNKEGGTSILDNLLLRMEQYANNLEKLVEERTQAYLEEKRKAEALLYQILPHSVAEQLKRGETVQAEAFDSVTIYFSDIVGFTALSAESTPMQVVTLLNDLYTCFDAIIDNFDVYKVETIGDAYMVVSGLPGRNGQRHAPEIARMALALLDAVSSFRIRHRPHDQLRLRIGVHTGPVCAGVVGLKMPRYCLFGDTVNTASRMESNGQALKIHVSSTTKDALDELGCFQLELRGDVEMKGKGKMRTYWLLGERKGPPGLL
Protocol: as §1

SYK = target: T3, SYK (Homo sapiens, UniProt P43405)
T3 construct: K562 cell pellets were thawed on ice and resuspended in cold Lysis buffer; endogenous in cells; host or cells: K562
Protocol: as §1

RAF1 = target: T4, RAF1 (Homo sapiens, UniProt P04049);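 on 0.001 uM KAM: median log10 fold change of treatment over DMSO control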;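 on 0.01 uM KAM: median log10 fold change of treatment over DMSO control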;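 on 0.1 uM KAM: median log10 fold change of treatment over DMSO control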;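 on 1 uM KAM: median log10 fold change of treatment over DMSO control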;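 on 10 uM KAM: median log10 fold change of treatment over DMSO control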
T4 construct: endogenous in cells; host or cells: K562
Protocol: as §1

[1] = KAM 0.001-10 uM, read-out: RB50 (the source's name)

T4 sequence (P04049 whole entry): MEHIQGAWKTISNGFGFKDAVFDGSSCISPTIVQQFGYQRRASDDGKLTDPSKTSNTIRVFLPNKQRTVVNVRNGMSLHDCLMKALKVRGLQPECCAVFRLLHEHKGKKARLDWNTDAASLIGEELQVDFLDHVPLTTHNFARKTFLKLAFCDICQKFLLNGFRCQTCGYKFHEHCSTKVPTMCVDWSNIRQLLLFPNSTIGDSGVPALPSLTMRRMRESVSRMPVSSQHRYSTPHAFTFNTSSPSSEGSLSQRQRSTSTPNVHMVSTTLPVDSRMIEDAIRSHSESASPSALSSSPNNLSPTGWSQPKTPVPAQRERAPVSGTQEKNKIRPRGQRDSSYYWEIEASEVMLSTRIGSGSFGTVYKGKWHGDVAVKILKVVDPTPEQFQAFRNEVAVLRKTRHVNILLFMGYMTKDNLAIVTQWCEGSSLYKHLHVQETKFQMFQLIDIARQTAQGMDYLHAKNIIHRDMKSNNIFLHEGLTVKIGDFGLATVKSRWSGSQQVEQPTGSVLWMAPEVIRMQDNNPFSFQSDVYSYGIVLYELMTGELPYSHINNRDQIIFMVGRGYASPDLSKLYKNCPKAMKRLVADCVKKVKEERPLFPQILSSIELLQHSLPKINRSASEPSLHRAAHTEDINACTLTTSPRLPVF

## N#CCc1ccc(Nc2nc(NCCCN)cc(Nc3cc(C4CC4)[nH]n3)n2)cc1 [KAM]
ULK2; [1]
  IC50: > 10 µM
ULK2; relative to 0 uM KAM = 0
  0.001 uM KAM: -0.004094
  0.01 uM KAM: -0.0009308
  0.1 uM KAM: 0.03838
  1 uM KAM: 0.1564
  10 uM KAM: 0.04645
NPR2; [1]
  IC50: > 10 µM
NPR2; relative to 0 uM KAM = 0
  0.001 uM KAM: -0.04196
  0.01 uM KAM: -0.03427
  0.1 uM KAM: -0.06644
  1 uM KAM: -0.002813
  10 uM KAM: -0.07947
SYK; 0.001 uM KAM
  median Log10 fold change: -0.04062
SYK; 0.01 uM KAM
  median Log10 fold change: -0.03667
SYK; 0.1 uM KAM
  median Log10 fold change: -0.2061
SYK; 1 uM KAM
  median Log10 fold change: -0.3555
SYK; 10 uM KAM
  median Log10 fold change: -0.3656
SYK; read-out: RB50 (the source's name)
  IC50: 0.714 µM
RAF1; [1]
  IC50: > 10 µM
RAF1; relative to 0 uM KAM = 0
  0.001 uM KAM: 0.02436
  0.01 uM KAM: -0.01322
  0.1 uM KAM: -0.08739
  1 uM KAM: -0.1339
  10 uM KAM: -0.1871
